Values of other authors, collected in patent US9630917B2, “Cysteamine prodrugs, pharmaceutical compositions thereof, and methods of use” (priority 2015, dated 2017).

Conditions: oral absorption; Smolin et al., Ped Res. 1988; 23, 616-620

NCCS [cysteamine]
absolute bioavailability: about 10%
